Measurements reported in the supplement of paper PMC10331698.
± gives the standard deviation of the averaged measurements.

Experiments:
Assay in all cases: level (log10 ratio to DMSO vehicle control); higher = higher biomarker level / cell amount than vehicle control
[1] = compound: NC(=O)C(F)(F)C(F)(F)C(F)(F)C(F)(F)C(N)=O [Octafluoroadipamide]; conditions: in DMSO
Procedure: (§1)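 BioMAP Diversity Plus panel of 12 human primary cell co-culture systems (3C, 4H, LPS, SAg, BT, BF4T, BE3C, CASM3C, HDF3CGF, KF3CT, MyoF, Mphg). Compounds were added 1 h before stimulation and left for 24 h (MyoF 48 h; BT 72 h for soluble read-outs or 6 d for IgG). Biomarkers were read by ELISA, cytotoxicity by SRB, PBMC viability and proliferation by Alamar Blue. Each well value was divided by the mean of 8 DMSO control wells on the same plate and log10 transformed; duplicate blinded samples were tested at 4 concentrations.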

[2] = compound: FC(F)(F)C(F)(F)C(F)(F)C(F)(F)C(F)(F)C(F)(F)CC1CO1 [3-(Perfluorohexyl)-1,2-epoxypropane]; conditions: in DMSO
Procedure: as §1

[3] = compound: O=C(O)C(F)(F)C(F)(F)C(F)(F)C(F)(F)C(F)(F)C(F)(F)C(F)(F)C(F)(F)C(F)(F)C(F)F [11-H-Perfluoroundecanoic acid]; conditions: in DMSO
Procedure: as §1

[4] = compound: O=S(=O)(Cl)C(F)(F)C(F)(F)C(F)(F)C(F)(F)C(F)(F)C(F)(F)C(F)(F)C(F)(F)F [Perfluoro-1-octanesulfonyl chloride]; conditions: in DMSO
Procedure: as §1

[5] = compound: NC(=O)C(F)(F)C(F)(F)C(F)(F)C(F)F; conditions: in DMSO
Procedure: as §1

[6] = compound: FC(F)(F)C(F)(F)C(F)(F)C(F)(F)C(F)(F)C(F)(F)C(F)(F)I [1-Iodopentadecafluoroheptane]; conditions: in DMSO
Procedure: as §1

[7] = compound: NS(=O)(=O)C(F)(F)C(F)(F)C(F)(F)C(F)(F)C(F)(F)C(F)(F)F [Perfluorohexanesulfonamide]; conditions: in DMSO
Procedure: as §1

[8] = compound: C=CC(=O)OCC(F)(F)C(F)(F)C(F)(F)COC(=O)C=C [1H,1H,5H,5H-Perfluoro-1,5-pentanediol diacrylate]; conditions: 6700 nM; in DMSO
Procedure: as §1

[9] = compound: FC(F)(F)C(F)(F)C(F)(F)CC1CO1 [1H,1H-Heptafluorobutyl epoxide]; conditions: in DMSO
Procedure: as §1

[10] = compound: C=C(C)C(=O)OCCC(F)(F)C(F)(F)C(F)(F)C(F)(F)C(F)(F)C(F)(F)F [6:2 Fluorotelomer methacrylate]; conditions: in DMSO
Procedure: as §1

[11] = compound: O=S(=O)(O)C(F)(F)C(F)(F)C(F)(F)C(F)(F)C(F)(F)C(F)(F)C(F)(F)C(F)(F)C(F)(F)C(F)(F)F [Sodium perfluorodecanesulfonate]; conditions: in DMSO
Procedure: as §1

[12] = compound: COC(=O)C(F)(F)C(F)(F)OC(F)(C(F)(F)F)C(F)(F)OC(F)=C(F)F [Methyl perfluoro(3-(1-ethenyloxypropan-2-yloxy)propanoate)]; conditions: in DMSO
Procedure: as §1

[13] = compound: FC(F)(F)C(F)(F)C(F)(F)CI [Heptafluorobutyl iodide]; conditions: in DMSO
Procedure: as §1

[14] = compound: OCC(F)(F)C(F)(F)C(F)(F)CO [Hexafluoroamylene glycol]; conditions: in DMSO
Procedure: as §1

[15] = compound: O=S(=O)(F)C(F)(F)C(F)(F)C(F)(F)C(F)(F)C(F)(F)C(F)(F)C(F)(F)C(F)(F)F [Perfluorooctanesulfonyl fluoride]; conditions: in DMSO
Procedure: as §1

[16] = compound: O=C(O)C=CC(F)(C(F)(F)F)C(F)(F)F [3-(Perfluoroisopropyl)-2-propenoic acid]; conditions: in DMSO
Procedure: as §1

[17] = compound: FC(F)(F)C(F)(F)CNCC(F)(F)C(F)(F)F [Bis(1H,1H-perfluoropropyl)amine]; conditions: in DMSO
Procedure: as §1

[18] = compound: NC(=O)C(F)(F)C(F)(F)C(F)(F)C(F)(F)F [Nonafluoropentanamide]; conditions: in DMSO
Procedure: as §1

[19] = compound: O=S(=O)(O)CCC(F)(F)C(F)(F)C(F)(F)C(F)(F)C(F)(F)C(F)(F)F [6:2 Fluorotelomer sulfonic acid]; conditions: in DMSO
Procedure: as §1

BF4T:MMP-1
level (log10) ([1]; 6700 nM): -0.006 ± 0.0099 | level (log10) ([1]; 20000 nM): -0.0095 ± 0.0021 | level (log10) ([1]; 60000 nM): 0.004 ± 0.016 | level (log10) ([2]; 6700 nM): -0.003 ± 0.0057 | level (log10) ([2]; 20000 nM): 0.0045 ± 0.0021 | level (log10) ([2]; 60000 nM): 0.023 ± 0.027 | level (log10) ([3]; 6700 nM): -0.0115 ± 0.013 | level (log10) ([3]; 20000 nM): 0.0005 ± 0.026 | level (log10) ([4]; 6700 nM): 0.008 ± 0.016 | level (log10) ([4]; 20000 nM): 0.025 ± 0.014 | level (log10) ([4]; 60000 nM): -0.042 ± 0.0071 | level (log10) ([5]; 6700 nM): 0.003 ± 0.0085 | level (log10) ([5]; 20000 nM): -0.003 ± 0.0085 | level (log10) ([5]; 60000 nM): 0.0075 ± 0.0035 | level (log10) ([6]; 6700 nM): -0.0055 ± 0.018 | level (log10) ([6]; 20000 nM): 0.0005 ± 0.0035 | level (log10) ([7]; 6700 nM): 0 ± 0.0014 | level (log10) ([7]; 20000 nM): -0.012 ± 0.0042 | level (log10) ([7]; 60000 nM): -0.018 ± 0.0014 | level (log10) [8]: 0.031 ± 0.016 | level (log10) ([9]; 6700 nM): 0.014 ± 0.02 | level (log10) ([9]; 20000 nM): 0.009 ± 0.024 | level (log10) ([9]; 60000 nM): 0.019 ± 0.048 | level (log10) ([10]; 6700 nM): -0.0015 ± 0.005 | level (log10) ([10]; 20000 nM): 0.015 ± 0.011 | level (log10) ([10]; 60000 nM): 0.015 ± 0.013 | level (log10) ([11]; 1500 nM): 0.009 ± 0.013 | level (log10) ([11]; 4400 nM): -0.0095 ± 0.0078 | level (log10) ([11]; 13000 nM): 0.001 ± 0.0014 | level (log10) ([11]; 40000 nM): 0.0245 ± 0.005 | level (log10) ([12]; 6700 nM): 0.0055 ± 0.019 | level (log10) ([12]; 20000 nM): 0.0095 ± 0.0021 | level (log10) ([13]; 6700 nM): -0.005 ± 0.013 | level (log10) ([13]; 20000 nM): -0.0055 ± 0.0035 | level (log10) ([13]; 60000 nM): 0.0055 ± 0.012 | level (log10) ([14]; 6700 nM): -0.0105 ± 0.005 | level (log10) ([14]; 20000 nM): -0.007 ± 0.0014 | level (log10) ([14]; 60000 nM): 0 ± 0.0085 | level (log10) ([15]; 6700 nM): -0.0075 ± 0.00071 | level (log10) ([15]; 20000 nM): -0.0115 ± 0.005 | level (log10) ([15]; 60000 nM): 0.001 ± 0.0071 | level (log10) ([16]; 6700 nM): -0.0055 ± 0.012 | level (log10) ([16]; 20000 nM): -0.0055 ± 0.0035 | level (log10) ([16]; 60000 nM): 0.017 ± 0.03 | level (log10) ([17]; 6700 nM): -0.009 ± 0.0071 | level (log10) ([17]; 20000 nM): -0.0005 ± 0.00071 | level (log10) ([17]; 60000 nM): 0.01 ± 0.011 | level (log10) ([18]; 6700 nM): -0.009 ± 0.0042 | level (log10) ([18]; 20000 nM): -0.0005 ± 0.013 | level (log10) ([18]; 60000 nM): -0.01 ± 0.0099 | level (log10) ([19]; 6700 nM): -0.0085 ± 0.00071 | level (log10) ([19]; 20000 nM): -0.0125 ± 0.0078 | level (log10) ([19]; 60000 nM): 0.0065 ± 0.013

MyoF:CD106/VCAM-1
level (log10) ([1]; 6700 nM): -0.006 ± 0.021 | level (log10) ([1]; 20000 nM): 0.026 ± 0.0057 | level (log10) ([1]; 60000 nM): 0.002 ± 0.0014 | level (log10) ([2]; 6700 nM): 0.002 ± 0.013 | level (log10) ([2]; 20000 nM): 0.013 ± 0.013 | level (log10) ([2]; 60000 nM): 0.0205 ± 0.015 | level (log10) ([3]; 6700 nM): 0.0035 ± 0.0078 | level (log10) ([3]; 20000 nM): -0.152 ± 0.02 | level (log10) ([4]; 6700 nM): -0.0025 ± 0.0064 | level (log10) ([4]; 20000 nM): 0.0025 ± 0.025 | level (log10) ([4]; 60000 nM): -0.0195 ± 0.0092 | level (log10) ([5]; 6700 nM): -0.0085 ± 0.013 | level (log10) ([5]; 20000 nM): -0.0205 ± 0.013 | level (log10) ([5]; 60000 nM): -0.0235 ± 0.013 | level (log10) ([6]; 6700 nM): -0.091 ± 0.0057 | level (log10) ([6]; 20000 nM): -0.448 ± 0.019 | level (log10) ([7]; 6700 nM): -0.0105 ± 0.021 | level (log10) ([7]; 20000 nM): -0.0165 ± 0.0021 | level (log10) ([7]; 60000 nM): -0.0655 ± 0.0078 | level (log10) [8]: -0.212 ± 0.015 | level (log10) ([9]; 6700 nM): -0.007 ± 0.013 | level (log10) ([9]; 20000 nM): -0.007 ± 0.038 | level (log10) ([9]; 60000 nM): -0.0205 ± 0.03 | level (log10) ([10]; 6700 nM): -0.005 ± 0.037 | level (log10) ([10]; 20000 nM): -0.0005 ± 0.036 | level (log10) ([10]; 60000 nM): -0.003 ± 0.0042 | level (log10) ([11]; 1500 nM): 0.0005 ± 0.013 | level (log10) ([11]; 4400 nM): -0.0005 ± 0.013 | level (log10) ([11]; 13000 nM): -0.01 ± 0.0014 | level (log10) ([11]; 40000 nM): -0.035 ± 0.0085 | level (log10) ([12]; 6700 nM): -0.03 ± 0.0014 | level (log10) ([12]; 20000 nM): -0.0365 ± 0.019 | level (log10) ([13]; 6700 nM): -0.003 ± 0.0085 | level (log10) ([13]; 20000 nM): -0.018 ± 0.0071 | level (log10) ([13]; 60000 nM): -0.0055 ± 0.00071 | level (log10) ([14]; 6700 nM): -0.0015 ± 0.0092 | level (log10) ([14]; 20000 nM): -0.022 ± 0.02 | level (log10) ([14]; 60000 nM): -0.0045 ± 0.015 | level (log10) ([15]; 6700 nM): -0.0105 ± 0.00071 | level (log10) ([15]; 20000 nM): -0.0105 ± 0.005 | level (log10) ([15]; 60000 nM): -0.0185 ± 0.011 | level (log10) ([16]; 6700 nM): 0.006 ± 0.011 | level (log10) ([16]; 20000 nM): 0.0035 ± 0.00071 | level (log10) ([16]; 60000 nM): -0.0035 ± 0.0035 | level (log10) ([17]; 6700 nM): 0.0045 ± 0.0078 | level (log10) ([17]; 20000 nM): 0.0065 ± 0.005 | level (log10) ([17]; 60000 nM): 0.0095 ± 0.0021 | level (log10) ([18]; 6700 nM): -0.016 ± 0.0014 | level (log10) ([18]; 20000 nM): -0.003 | level (log10) ([18]; 60000 nM): 0.0055 ± 0.016 | level (log10) ([19]; 6700 nM): -0.003 ± 0.0028 | level (log10) ([19]; 20000 nM): -0.012 ± 0.0099 | level (log10) ([19]; 60000 nM): -0.0095 ± 0.005
